From US20170231929A1, “METHOD FOR ENHANCING IMMUNE CELL FUNCTION AND METHOD FOR ASSESSING IMMUNE CELL MULTIFUNCTIONALITY” (NATIONAL UNIVERSITY CORPORATION OKAYAMA UNIVERSITY, priority 2014, published 2017)

Test system: CD8^+T cells
Test: Multifunctionality of CD8^+T cells of primary lung cancer patients (stage I) after metformin treatment of PBMC (flow cytometer)
Format: cell-based, human
Settings: for Decrease, IFNγ 1-cytokine-producing cell / Decrease, IFNγ/IL-2 2-cytokine-producing cell / Decrease, IFNγ/TNFα 2-cytokine-producing cell / Decrease, IFNγ/TNFα/IL2 3-cytokine-producing cell / Increase, IFNγ 1-cytokine-producing cell / Increase, IFNγ/IL-2 2-cytokine-producing cell / Increase, IFNγ/TNFα 2-cytokine-producing cell / Increase, IFNγ/TNFα/IL2 3-cytokine-producing cell / No Change, IFNγ 1-cytokine-producing cell / No Change, IFNγ/IL-2 2-cytokine-producing cell / No Change, IFNγ/TNFα 2-cytokine-producing cell / No Change, IFNγ/TNFα/IL2 3-cytokine-producing cell: Cancer Patients (stage I)
Protocol: 1. Peripheral blood was obtained from a test subject, and PBMC was separated by a density-gradient centrifugation using a lymphocyte-separating reagent Ficoll-Paque® (GE Healthcare). 3 mL of Ficoll-Paque® was dispensed in a 15-mL tube. 8 mL of the peripheral blood was gently placed on the reagent. At this time, care should be taken not to mix Ficoll-Paque® with the peripheral blood. Centrifugation was performed at 400 g for 30 minutes, thereby separating PBMC. 2. The separated PBMC was preserved in a −150° C. freezer or liquid nitrogen using Bambang Car cell preservation liquid by adjusting the cell number to 2.0×10^6 cell/tube. 3. In the test, the thawed PBMC was cultured for 1 to 10 hours in the presence or absence of […]. The culture was performed using a 24-well plate, and the cell number was adjusted to about 5.0×10^5 cell/well. 4. The cells were collected after 1 to 10 hours, washed with medium, and cultured in the presence of a cell activation reagent (potent nanomolar activator of protein kinase C (PMA, 50 ng/mL), ionomycin (1 μM)) for 6 hours, thereby non-specifically stimulating T cells. At this time, BD Gorgi Stop™ was added to keep the produced cytokines inside the cells. 5. The cells were isolated and washed twice with a cell-staining buffer. First, staining of CD8, PD-1, Tim-3, which are molecules expressed on the T cell surface, was performed. In the staining, a staining buffer was added in an amount of 50 μL per sample. The culture was performed at 4° C. for 30 minutes. 6. The cells were collected and washed twice with a cell-staining buffer. 500 μL of BD Cytofix/Cytoperm was added and cultured at 4° C. for 30 minutes. 7. The cells were collected and washed twice with BD Perm/Wash™. Staining of cytokines IL-2, TNFα, and IFNγ was performed. In the staining, BD Perm/Wash™ was added in an amount of 50 μL per sample. The culture was performed at 4° C. for 30 minutes. 8. The cells were collected and washed twice with BD Perm/Wash™, and 200 μL of BD Perm/Wash™ was added. 9. Analysis was performed using a FACSCanto™ II flow cytometer (Becton, Dickinson and Company).
Among the PBMC treated with PMA/ionomycin in the method shown in (2) above, first, a gate was applied to CD8^+T cells using a FACSCanto™ II flow cytometer (Becton, Dickinson and Company), and then […] were removed by FSC-A and FSC-H. Using parameters FSC-A and SSC-A, a gate was applied to a lymphocyte group, thereby analyzing expression of PD-1 and Tim-3. Further, intracellular cytokines IFNγ, TNFα, and IL-2 were stained, and multifunctionality of CD8^+T cells contained in the PBMC was analyzed (FIG. 1).
Each PBMC obtained from 31 primary lung cancer patients (stage I) was cultured for an hour in the same manner as in (4) in the presence or absence of metformin. After metformin was removed, each resulting PBMC was analyzed. In a representative example, the CD8^+T cells untreated with metformin were determined to be 0.92%, and the CD8^+T cells treated with metformin were determined to be 1.44% (FIG. 3). Accordingly, it was judged that, in comparison with healthy subjects, multifunctionality of CD8^+T cells was increased by a metformin treatment in many cancer patients.
Among the cancer patients treated as above, the ratios of CD8^+T cells producing three kinds of cytokines (IFNγ/TNFα/IL-2), CD8^+T cells producing two kinds of cytokines (IFNγ/TNFα or IFNγ/IL-2), CD8^+T cells producing one kind of cytokine (IFNγ) with respect to the entire CD8^+T cells were calculated according to the same analysis as in (4), and shown in Table 2. The calculation results were compared between the metformin-untreated group (control) and the metformin-treated group (metformin).
This Example analyzed test results of recovery of multifunctionality of CD8^+T cells by metformin in 10 healthy subjects and 31 cancer patients (stage I) based on the results obtained by the method in Example 1. […]

[1] = total CD8^+T cells, cancer patients (stage I)

SMILES: CN(C)C(=N)N=C(N)N [metformin]
- Decrease, IFNγ 1-cytokine-producing cell (PD-1+, Tim-3+, patients/total): 10/31
- Decrease, IFNγ/IL-2 2-cytokine-producing cell (PD-1+, Tim-3+, patients/total): 8/31
- Decrease, IFNγ/TNFα 2-cytokine-producing cell (PD-1+, Tim-3+, patients/total): 9/31
- Decrease, IFNγ/TNFα/IL2 3-cytokine-producing cell (PD-1+, Tim-3+, patients/total): 7/31
- Increase, IFNγ 1-cytokine-producing cell (PD-1+, Tim-3+, patients/total): 19/31
- Increase, IFNγ/IL-2 2-cytokine-producing cell (PD-1+, Tim-3+, patients/total): 9/31
- Increase, IFNγ/TNFα 2-cytokine-producing cell (PD-1+, Tim-3+, patients/total): 11/31
- Increase, IFNγ/TNFα/IL2 3-cytokine-producing cell (PD-1+, Tim-3+, patients/total): 11/31
- No Change, IFNγ 1-cytokine-producing cell (PD-1+, Tim-3+, patients/total): 2/31
- No Change, IFNγ/IL-2 2-cytokine-producing cell (PD-1+, Tim-3+, patients/total): 14/31
- No Change, IFNγ/TNFα 2-cytokine-producing cell (PD-1+, Tim-3+, patients/total): 11/31
- No Change, IFNγ/TNFα/IL2 3-cytokine-producing cell (PD-1+, Tim-3+, patients/total): 13/31
- Decrease, IFNγ 1-cytokine-producing cell (PD-1+, Tim-3−, patients/total): 10/31
- Decrease, IFNγ/IL-2 2-cytokine-producing cell (PD-1+, Tim-3−, patients/total): 12/31
- Decrease, IFNγ/TNFα 2-cytokine-producing cell (PD-1+, Tim-3−, patients/total): 10/31
- Decrease, IFNγ/TNFα/IL2 3-cytokine-producing cell (PD-1+, Tim-3−, patients/total): 10/31
- Increase, IFNγ 1-cytokine-producing cell (PD-1+, Tim-3−, patients/total): 11/31
- Increase, IFNγ/IL-2 2-cytokine-producing cell (PD-1+, Tim-3−, patients/total): 12/31
- Increase, IFNγ/TNFα 2-cytokine-producing cell (PD-1+, Tim-3−, patients/total): 10/31
- Increase, IFNγ/TNFα/IL2 3-cytokine-producing cell (PD-1+, Tim-3−, patients/total): 14/31
- No Change, IFNγ 1-cytokine-producing cell (PD-1+, Tim-3−, patients/total): 10/31
- No Change, IFNγ/IL-2 2-cytokine-producing cell (PD-1+, Tim-3−, patients/total): 7/31
- No Change, IFNγ/TNFα 2-cytokine-producing cell (PD-1+, Tim-3−, patients/total): 11/31
- No Change, IFNγ/TNFα/IL2 3-cytokine-producing cell (PD-1+, Tim-3−, patients/total): 7/31
- Decrease, IFNγ 1-cytokine-producing cell (PD-1−, Tim-3+, patients/total): 14/31
- Decrease, IFNγ/IL-2 2-cytokine-producing cell (PD-1−, Tim-3+, patients/total): 9/31
- Decrease, IFNγ/TNFα 2-cytokine-producing cell (PD-1−, Tim-3+, patients/total): 8/31
- Decrease, IFNγ/TNFα/IL2 3-cytokine-producing cell (PD-1−, Tim-3+, patients/total): 6/31
- Increase, IFNγ 1-cytokine-producing cell (PD-1−, Tim-3+, patients/total): 10/31
- Increase, IFNγ/IL-2 2-cytokine-producing cell (PD-1−, Tim-3+, patients/total): 13/31
- Increase, IFNγ/TNFα 2-cytokine-producing cell (PD-1−, Tim-3+, patients/total): 13/31
- Increase, IFNγ/TNFα/IL2 3-cytokine-producing cell (PD-1−, Tim-3+, patients/total): 12/31
- No Change, IFNγ 1-cytokine-producing cell (PD-1−, Tim-3+, patients/total): 7/31
- No Change, IFNγ/IL-2 2-cytokine-producing cell (PD-1−, Tim-3+, patients/total): 9/31
- No Change, IFNγ/TNFα 2-cytokine-producing cell (PD-1−, Tim-3+, patients/total): 10/31
- No Change, IFNγ/TNFα/IL2 3-cytokine-producing cell (PD-1−, Tim-3+, patients/total): 13/31
- Decrease, IFNγ 1-cytokine-producing cell (PD-1−, Tim-3−, patients/total): 16/31
- Decrease, IFNγ/IL-2 2-cytokine-producing cell (PD-1−, Tim-3−, patients/total): 17/31
- Decrease, IFNγ/TNFα 2-cytokine-producing cell (PD-1−, Tim-3−, patients/total): 14/31
- Decrease, IFNγ/TNFα/IL2 3-cytokine-producing cell (PD-1−, Tim-3−, patients/total): 14/31
- Increase, IFNγ 1-cytokine-producing cell (PD-1−, Tim-3−, patients/total): 9/31
- Increase, IFNγ/IL-2 2-cytokine-producing cell (PD-1−, Tim-3−, patients/total): 12/31
- Increase, IFNγ/TNFα 2-cytokine-producing cell (PD-1−, Tim-3−, patients/total): 13/31
- Increase, IFNγ/TNFα/IL2 3-cytokine-producing cell (PD-1−, Tim-3−, patients/total): 13/31
- No Change, IFNγ 1-cytokine-producing cell (PD-1−, Tim-3−, patients/total): 6/31
- No Change, IFNγ/IL-2 2-cytokine-producing cell (PD-1−, Tim-3−, patients/total): 2/31
- No Change, IFNγ/TNFα 2-cytokine-producing cell (PD-1−, Tim-3−, patients/total): 4/31
- No Change, IFNγ/TNFα/IL2 3-cytokine-producing cell (PD-1−, Tim-3−, patients/total): 4/31
- Decrease, IFNγ 1-cytokine-producing cell (Total CD8T, patients/total): 13/31
- Decrease, IFNγ/IL-2 2-cytokine-producing cell (Total CD8T, patients/total): 15/31
- Decrease, IFNγ/TNFα 2-cytokine-producing cell (Total CD8T, patients/total): 12/31
- Decrease, IFNγ/TNFα/IL2 3-cytokine-producing cell (Total CD8T, patients/total): 12/31
- Increase, IFNγ 1-cytokine-producing cell (Total CD8T, patients/total): 5/31
- Increase, IFNγ/IL-2 2-cytokine-producing cell (Total CD8T, patients/total): 13/31
- Increase, IFNγ/TNFα 2-cytokine-producing cell (Total CD8T, patients/total): 15/31
- Increase, IFNγ/TNFα/IL2 3-cytokine-producing cell (Total CD8T, patients/total): 14/31
- No Change, IFNγ 1-cytokine-producing cell (Total CD8T, patients/total): 13/31
- No Change, IFNγ/IL-2 2-cytokine-producing cell (Total CD8T, patients/total): 3/31
- No Change, IFNγ/TNFα 2-cytokine-producing cell (Total CD8T, patients/total): 4/31
- No Change, IFNγ/TNFα/IL2 3-cytokine-producing cell (Total CD8T, patients/total): 5/31
- Increase + No Change, IFNγ/TNFα/IL2, share of patients (Total CD8T, Patients (stage I)): 61.3%
- Increase + No Change, IFNγ/TNFα/IL2 (Total CD8T, Patients (stage I), patients/total): 19/31
- multifunctionality of CD8^+T cells by a metformin treatment (many cancer patients, in comparison with healthy subjects): increased
- CD8^+T cells capable of simultaneously producing IFNγ, TNFα and IL-2, treated with metformin (primary lung cancer patients (stage I), representative example, FIG. 3, untreated with metformin 0.92%): 1.44%
- decrease in multifunctionality (three kinds of cytokines), share of patients [1]: 38.7%
- increase in multifunctionality (three kinds of cytokines), share of patients [1]: 45.2%
